Patent US20090068290A1, “BIFEPRUNOX DOSES FOR TREATING SCHIZOPHRENIA” (priority 2006, published 2009)

Columns and labels:
Assay type in all cases: in vivo, human
[1] = tested on: adult subjects with schizophrenia; test: PANSS general psychopathology subscale score, Clinical Study Two; details: LOCF; for Change from Baseline in General Psychopathology Subscale Score, Mean (SD) / Change from Baseline in General Psychopathology Subscale Score, Median: Risperidone 6 mg, ITT population
Procedure: (§1) Rating scale assessments were performed weekly, except for week 5, to measure the change from baseline to endpoint of the PANSS total score. Other assessments included: PANSS positive symptom subscale score, PANSS negative symptom subscale score, PANSS general pschopathology subscale score, BPRS total score, BPRS psychosis score, the CGI-S score, the CGI-I score, responder rates based on the PANSS total score, and the Calgary Depression Scale for Schizophrenia (CDSS). […]
(§2) Subjects who completed this study had the option to continue in the long-term. […] Risperidone-treated subjects were titrated from 2 mg to 6 mg daily over a three-day period and were subsequently maintained at 6 mg/day for the remainder of the treatment period. […] Blood samples were also obtained at Screening/Baseline, Week 3, and Week 6 for clinical laboratory assessments.

[2] = tested on: adult subjects with schizophrenia; test: PANSS positive subscale score, Clinical Study One; details: Risperidone 6 mg, ITT
Procedure: There were five treatment groups in this study. […] Study medication was administered once daily. After Baseline measurements were performed, the titration phase was begun. Bifeprunox treated subjects were titrated up to 5 mg, 10 mg or 20 mg according to a standardized titration schedule (Day 1: 0.125 mg, Day 2: 0.25 mg, Day 3: 0.5 mg, Day 4: 1.0 mg, Day 5: 2.0 mg, Day 6: 5.0 mg, Day 7: 10.0 mg, Day 8: 20 mg). When the assigned dose was reached, subjects were maintained at that dose for the remainder of the six-week treatment period.
The change in the Positive and Negative Symptom Scale (PANSS) total score, from baseline to endpoint, was the primary outcome measure. Secondary efficacy measures included: PANSS positive, PANSS negative, PANSS general psychopathology (GPP) score, PANSS-derived Brief Psychiatric Rating Scale (BPRS) score, Clinical Global Impressions-Severity of Illness (CGI-S), CGI-Improvement (CGI-I) scores, and responder rates. Safety and tolerability evaluations included extrapyramidal symptoms (EPS), weight gain, lipid profile, and serum prolactin.

[3] = tested on: adult subjects with schizophrenia; test: Adverse events (TEAE, SAE, special interest, EPS-related TEAE), Clinical Study Two; details: Risperidone 6 mg
Procedure: as §2

[4] = tested on: adult subjects with schizophrenia; test: BPRS psychosis cluster score, Clinical Study Two; details: LOCF; for Change from Baseline in BPRS Psychosis Cluster Score, Mean (SD) / Change from Baseline in BPRS Psychosis Cluster Score, Median: Risperidone 6 mg, ITT population
Procedure: as §1, §2

Structure (SMILES): Cc1nc2n(c(=O)c1CCN1CCC(c3noc4cc(F)ccc34)CC1)CCCC2 [Risperidone, risperidone, reference compound]
- Change from Baseline in General Psychopathology Subscale Score, Mean (SD) ([1]; Week 1): −3.9 (5.6)
- Change from Baseline in General Psychopathology Subscale Score, Median ([1]; Week 1): −4
- Change from Baseline in General Psychopathology Subscale Score, Mean (SD) ([1]; Week 2): −6.7 (7.3)
- Change from Baseline in General Psychopathology Subscale Score, Median ([1]; Week 2): −6
- Change from Baseline in General Psychopathology Subscale Score, Mean (SD) ([1]; Week 3): −7.6 (7.7)
- Change from Baseline in General Psychopathology Subscale Score, Median ([1]; Week 3): −8
- Change from Baseline in General Psychopathology Subscale Score, Mean (SD) ([1]; Week 4): −8.4 (8.5)
- Change from Baseline in General Psychopathology Subscale Score, Median ([1]; Week 4): −9
- Change from Baseline in General Psychopathology Subscale Score, Mean (SD) ([1]; Week 6/Endpoint): −8.6 (9.8)
- Change from Baseline in General Psychopathology Subscale Score, Median ([1]; Week 6/Endpoint): −9
- mean change (SD) from Baseline to Endpoint in PANSS general psychopathology subscale score ([1]; risperidone 6 mg, ITT): −8.6 (9.8)
- Change from Baseline in PANSS Positive Subscale Score, Mean (S.D.) ([2]; Endpoint LOCF): −5.3 (4.8)
- Change from Baseline in PANSS Positive Subscale Score, Median ([2]; Endpoint LOCF): −5
- Change from Baseline in PANSS Positive Subscale Score, Mean (S.D.) ([2]; Week 1, LOCF): −2.7 (3.4)
- Change from Baseline in PANSS Positive Subscale Score, Median ([2]; Week 1, LOCF): −2
- Change from Baseline in PANSS Positive Subscale Score, Mean (S.D.) ([2]; Week 2, LOCF): −4.3 (4.2)
- Change from Baseline in PANSS Positive Subscale Score, Median ([2]; Week 2, LOCF): −4
- Change from Baseline in PANSS Positive Subscale Score, Mean (S.D.) ([2]; Week 3, LOCF): −5.0 (4.6)
- Change from Baseline in PANSS Positive Subscale Score, Median ([2]; Week 3, LOCF): −5
- Change from Baseline in PANSS Positive Subscale Score, Mean (S.D.) ([2]; Week 4, LOCF): −4.9 (4.6)
- Change from Baseline in PANSS Positive Subscale Score, Median ([2]; Week 4, LOCF): −4
- AKATHISIA, % [3]: (10%)
- BRADYKINESIA, % [3]: (1%)
- DISTURBANCE IN ATTENTION, % [3]: (1%)
- DIZZINESS, % [3]: (6%)
- DYSARTHRIA, % [3]: (2%)
- DYSKINESIA, % [3]: (<1%)
- Dystonia, % [3]: (7%)
- EXTRAPYRAMIDAL DISORDER, % [3]: (14%)
- HEADACHE NOS, % [3]: (15%)
- Hypoaesthesia, % [3]: 1 (<1%)
- Memory Impairment, % [3]: 1 (<1%)
- NERVOUS SYSTEM DISORDERS, % [3]: (53%)
- Parkinsonism, % [3]: 1%
- SEDATION, % [3]: 7%
- SINUS HEADACHE, % [3]: 1 (<1%)
- SOMNOLENCE, % [3]: 6%
- TARDIVE DYSKINESIA, % [3]: 2%
- TREMOR, % [3]: 5%
- incidence of severe TEAE of schizophrenia [3]: 2%
- subjects with at least one TEAE [3]: 78%
- Change from Baseline in BPRS Psychosis Cluster Score, Mean (SD) ([4]; Week 1): −2.3 (2.4)
- Change from Baseline in BPRS Psychosis Cluster Score, Median ([4]; Week 1): −2
- Change from Baseline in BPRS Psychosis Cluster Score, Mean (SD) ([4]; Week 2): −3.6 (3.0)
- Change from Baseline in BPRS Psychosis Cluster Score, Median ([4]; Week 2): −4
- Change from Baseline in BPRS Psychosis Cluster Score, Mean (SD) ([4]; Week 3): −4.3 (3.4)
- Change from Baseline in BPRS Psychosis Cluster Score, Median ([4]; Week 3): −4
- Change from Baseline in BPRS Psychosis Cluster Score, Mean (SD) ([4]; Week 4): −4.7 (3.6)
- Change from Baseline in BPRS Psychosis Cluster Score, Median ([4]; Week 4): −5
- Change from Baseline in BPRS Psychosis Cluster Score, Mean (SD) ([4]; Week 6/Endpoint): −4.9 (4.0)
- Change from Baseline in BPRS Psychosis Cluster Score, Median ([4]; Week 6/Endpoint): −5
- mean change (SD) from Baseline to Endpoint in BPRS psychosis cluster score ([4]; risperidone 6 mg, ITT): −4.9 (4.0)
